{"source": "patent US20070117776A1", "about": "“Low Dose Therapy Of DNA Methylation Inhibitors” (priority 2005, published 2007)", "key": {"cytidine deaminases": {"tested_on": "cytidine deaminases", "settings": "enzymatic degradation by cytidine deaminases, particularly in the small intestine; cited from earlier work"}, "[1]": {"format": "physicochemical", "description": "Maintaining the solution at low temperature and buffering the drug can control degradation kinetics of aqueous solutions but the stability achieved is not sufficient to render the product stable during its entire proposed shelf life. A dry solid formulation of decitabine which is stable was achieved by lyophilization of an aqueous solution. The process of lyophilization to obtain a solid form is considered essential for maximizing the stability of the product.\nA bulk solution of 5 mg/mL of decitabine was prepared during compounding. To minimize degradation during compounding of the bulk solution prior to lyophilization, the bulk solution was maintained at low temperature, and the time the drug remains in solution prior to lyophilization was minimized. Maximum solution stability was achieved by dissolving the drug in a pH 6.8-7.0 phosphate buffer solution at 0-4° C.\nBased on the results, appropriate recommendations for the preparation and storage of the reconstituted and diluted solutions can be made to pharmacists and clinical practitioners. The product was reconstituted in 10 mL WFI and diluted with one of the three pre-chilled infusion fluids indicated in Table 1 and Table 2 to two different concentrations, 0.1 mg/mL and 1 mg/mL covering the entire concentration range expected to be used in the clinical setting. The diluted solutions were stored for one to ten hours in infusion bags in the refrigerator at 2-8° C. to simulate conditions prior to infusion and then removed and placed at room temperature to simulate conditions during infusion. Bags placed in the refrigerator for one hour were removed and placed at room temperature and sampled thereafter for the next three hours at room temperature (Experiment No. 1) while the bags placed in the refrigerator for ten hours were removed and sampled for the next two hours at room temperature (Experiment No. 2).\nThe method used to estimate degradation products is based on percent peak area measurements assuming the degradation products have a response factor of 1, with respect to decitabine.\nTable 1 and Table 2 also show the pH data obtained after the preparation of the infusion, which is consistently within ±0.3 pH units of neutral pH."}, "[2]": {"settings": "0.1 mg/mL in 0.9% NaCl, Experiment 1 (2-8° C. one hour, then room temperature), at 0 h"}, "[3]": {"settings": "0.1 mg/mL in 0.9% NaCl, Experiment 1 (2-8° C. one hour, then room temperature), at 1 h"}, "[4]": {"settings": "0.1 mg/mL in 0.9% NaCl, Experiment 1 (2-8° C. one hour, then room temperature), at 2 h"}, "[5]": {"settings": "0.1 mg/mL in 0.9% NaCl, Experiment 1 (2-8° C. one hour, then room temperature), at 3 h"}, "[6]": {"settings": "0.1 mg/mL in 0.9% NaCl, Experiment 1 (2-8° C. one hour, then room temperature), at 4 h"}, "[7]": {"settings": "0.1 mg/mL in 0.9% NaCl, Experiment 2 (2-8° C. ten hours, then room temperature), at 0 h"}, "[8]": {"settings": "0.1 mg/mL in 0.9% NaCl, Experiment 2 (2-8° C. ten hours, then room temperature), at 10 h"}, "[9]": {"settings": "0.1 mg/mL in 0.9% NaCl, Experiment 2 (2-8° C. ten hours, then room temperature), at 11 h"}, "[10]": {"settings": "0.1 mg/mL in 0.9% NaCl, Experiment 2 (2-8° C. ten hours, then room temperature), at 12 h"}, "[11]": {"settings": "0.1 mg/mL in 5% Dextrose, Experiment 1 (2-8° C. one hour, then room temperature), at 0 h"}, "[12]": {"settings": "0.1 mg/mL in 5% Dextrose, Experiment 1 (2-8° C. one hour, then room temperature), at 1 h"}, "[13]": {"settings": "0.1 mg/mL in 5% Dextrose, Experiment 1 (2-8° C. one hour, then room temperature), at 2 h"}, "[14]": {"settings": "0.1 mg/mL in 5% Dextrose, Experiment 1 (2-8° C. one hour, then room temperature), at 3 h"}, "[15]": {"settings": "0.1 mg/mL in 5% Dextrose, Experiment 1 (2-8° C. one hour, then room temperature), at 4 h"}, "[16]": {"settings": "0.1 mg/mL in 5% Dextrose, Experiment 2 (2-8° C. ten hours, then room temperature), at 0 h"}, "[17]": {"settings": "0.1 mg/mL in 5% Dextrose, Experiment 2 (2-8° C. ten hours, then room temperature), at 10 h"}, "[18]": {"settings": "0.1 mg/mL in 5% Dextrose, Experiment 2 (2-8° C. ten hours, then room temperature), at 11 h"}, "[19]": {"settings": "0.1 mg/mL in 5% Dextrose, Experiment 2 (2-8° C. ten hours, then room temperature), at 12 h"}, "[20]": {"settings": "0.1 mg/mL in Lactated Ringer's, Experiment 1 (2-8° C. one hour, then room temperature), at 0 h"}, "[21]": {"settings": "0.1 mg/mL in Lactated Ringer's, Experiment 1 (2-8° C. one hour, then room temperature), at 1 h"}, "[22]": {"settings": "0.1 mg/mL in Lactated Ringer's, Experiment 1 (2-8° C. one hour, then room temperature), at 2 h"}, "[23]": {"settings": "0.1 mg/mL in Lactated Ringer's, Experiment 1 (2-8° C. one hour, then room temperature), at 3 h"}, "[24]": {"settings": "0.1 mg/mL in Lactated Ringer's, Experiment 1 (2-8° C. one hour, then room temperature), at 4 h"}, "[25]": {"settings": "0.1 mg/mL in Lactated Ringer's, Experiment 2 (2-8° C. ten hours, then room temperature), at 0 h"}, "[26]": {"settings": "0.1 mg/mL in Lactated Ringer's, Experiment 2 (2-8° C. ten hours, then room temperature), at 10 h"}, "[27]": {"settings": "0.1 mg/mL in Lactated Ringer's, Experiment 2 (2-8° C. ten hours, then room temperature), at 11 h"}, "[28]": {"settings": "0.1 mg/mL in Lactated Ringer's, Experiment 2 (2-8° C. ten hours, then room temperature), at 12 h"}}, "note": "Read-outs that look alike come from different tables or passages of the source.", "data": [{"molecule": "Nc1ncn([C@H]2C[C@H](O)[C@@H](CO)O2)c(=O)n1", "note": "[Decitabine, 4-amino-1-(2-deoxy-β-D-erythro-pentofuranosyl)-1,3,5-triazin-2(1H)-one]", "values": [{"measurement": "oral bioavailability", "setting": "cytidine deaminases", "result": "reduced oral bioavailability"}, {"measurement": "degradation in aqueous solution", "setting": "[1]", "result": "degrades rapidly"}, {"measurement": "pH after the preparation of the infusion", "setting": "[1]; 0.1 mg/mL in 0.9% NaCl", "result": 6.7}, {"measurement": "Decitabine Content", "setting": "[1]; [2]", "result": 97.5, "unit": "%"}, {"measurement": "Total Impurities", "setting": "[1]; [2]", "result": "(2.5%)"}, {"measurement": "Decitabine Content", "setting": "[1]; [3]", "result": 96.9, "unit": "%"}, {"measurement": "Total Impurities", "setting": "[1]; [3]", "result": "(3.2%)"}, {"measurement": "Decitabine Content", "setting": "[1]; [4]", "result": 95.7, "unit": "%"}, {"measurement": "Total Impurities", "setting": "[1]; [4]", "result": "(4.3%)"}, {"measurement": "Decitabine Content", "setting": "[1]; [5]", "result": 94.1, "unit": "%"}, {"measurement": "Total Impurities", "setting": "[1]; [5]", "result": "(6.0%)"}, {"measurement": "Decitabine Content", "setting": "[1]; [6]", "result": 92.5, "unit": "%"}, {"measurement": "Total Impurities", "setting": "[1]; [6]", "result": "(7.7%)"}, {"measurement": "Decitabine Content", "setting": "[1]; [7]", "result": 97.8, "unit": "%"}, {"measurement": "Total Impurities", "setting": "[1]; [7]", "result": "(2.2%)"}, {"measurement": "Decitabine Content", "setting": "[1]; [8]", "result": 93.4, "unit": "%"}, {"measurement": "Total Impurities", "setting": "[1]; [8]", "result": "(6.7%)"}, {"measurement": "Decitabine Content", "setting": "[1]; [9]", "result": 92.3, "unit": "%"}, {"measurement": "Total Impurities", "setting": "[1]; [9]", "result": "(7.7%)"}, {"measurement": "Decitabine Content", "setting": "[1]; [10]", "result": 90.8, "unit": "%"}, {"measurement": "Total Impurities", "setting": "[1]; [10]", "result": "(9.2%)"}, {"measurement": "pH after the preparation of the infusion", "setting": "[1]; 0.1 mg/mL in 5% Dextrose", "result": 6.9}, {"measurement": "Decitabine Content", "setting": "[1]; [11]", "result": 97.4, "unit": "%"}, {"measurement": "Total Impurities", "setting": "[1]; [11]", "result": "(2.6%)"}, {"measurement": "Decitabine Content", "setting": "[1]; [12]", "result": 97.2, "unit": "%"}, {"measurement": "Total Impurities", "setting": "[1]; [12]", "result": "(2.7%)"}, {"measurement": "Decitabine Content", "setting": "[1]; [13]", "result": 96.4, "unit": "%"}, {"measurement": "Total Impurities", "setting": "[1]; [13]", "result": "(3.6%)"}, {"measurement": "Decitabine Content", "setting": "[1]; [14]", "result": 94.9, "unit": "%"}, {"measurement": "Total Impurities", "setting": "[1]; [14]", "result": "(5.1%)"}, {"measurement": "Decitabine Content", "setting": "[1]; [15]", "result": 93.6, "unit": "%"}, {"measurement": "Total Impurities", "setting": "[1]; [15]", "result": "(6.4%)"}, {"measurement": "Decitabine Content", "setting": "[1]; [16]", "result": 98.2, "unit": "%"}, {"measurement": "Total Impurities", "setting": "[1]; [16]", "result": "(1.9%)"}, {"measurement": "Decitabine Content", "setting": "[1]; [17]", "result": 94.9, "unit": "%"}, {"measurement": "Total Impurities", "setting": "[1]; [17]", "result": "(5.2%)"}, {"measurement": "Decitabine Content", "setting": "[1]; [18]", "result": 94.5, "unit": "%"}, {"measurement": "Total Impurities", "setting": "[1]; [18]", "result": "(5.6%)"}, {"measurement": "Decitabine Content", "setting": "[1]; [19]", "result": 93.3, "unit": "%"}, {"measurement": "Total Impurities", "setting": "[1]; [19]", "result": "(6.7%)"}, {"measurement": "pH after the preparation of the infusion", "setting": "[1]; 0.1 mg/mL in Lactated Ringer's", "result": 6.7}, {"measurement": "Decitabine Content", "setting": "[1]; [20]", "result": 98.3, "unit": "%"}, {"measurement": "Total Impurities", "setting": "[1]; [20]", "result": "(1.7%)"}, {"measurement": "Decitabine Content", "setting": "[1]; [21]", "result": 98.1, "unit": "%"}, {"measurement": "Total Impurities", "setting": "[1]; [21]", "result": "(1.9%)"}, {"measurement": "Decitabine Content", "setting": "[1]; [22]", "result": 97.0, "unit": "%"}, {"measurement": "Total Impurities", "setting": "[1]; [22]", "result": "(3.0%)"}, {"measurement": "Decitabine Content", "setting": "[1]; [23]", "result": 95.9, "unit": "%"}, {"measurement": "Total Impurities", "setting": "[1]; [23]", "result": "(4.1%)"}, {"measurement": "Decitabine Content", "setting": "[1]; [24]", "result": 94.9, "unit": "%"}, {"measurement": "Total Impurities", "setting": "[1]; [24]", "result": "(5.2%)"}, {"measurement": "Decitabine Content", "setting": "[1]; [25]", "result": 98.0, "unit": "%"}, {"measurement": "Total Impurities", "setting": "[1]; [25]", "result": "(2.1%)"}, {"measurement": "Decitabine Content", "setting": "[1]; [26]", "result": 93.4, "unit": "%"}, {"measurement": "Total Impurities", "setting": "[1]; [26]", "result": "(6.7%)"}, {"measurement": "Decitabine Content", "setting": "[1]; [27]", "result": 92.6, "unit": "%"}, {"measurement": "Total Impurities", "setting": "[1]; [27]", "result": "(7.4%)"}, {"measurement": "Decitabine Content", "setting": "[1]; [28]", "result": 91.8, "unit": "%"}, {"measurement": "Total Impurities", "setting": "[1]; [28]", "result": "(8.3%)"}, {"measurement": "pH of maximum solution stability", "setting": "[1]; 5 mg/mL", "result": "6.8-7.0"}]}]}
